Test results as given in patent publication US20110034703A1, “CRYSTAL FORMS OF N-[2-(DIETHYLAMINO)ETHYL]-5-[(5-FLUORO-1,2-DIHYDRO-2-OXO-3H-INDOL-3-YLIDENE)METHYL]-2,4-DIMETHYL-1H-PYRROLE-3-CARBOXAMIDE AND METHODS FOR THEIR PREPARATION” (ratiopharm GmbH, priority 2008, published 2011).
Entries after “also recorded” stand apart in the source; their conditions may differ.

Assay: Dynamic moisture sorption gravimetry (DMSG), hygroscopicity
Format: physicochemical
Settings: for hygroscopicity (in words): DMSG data; for moisture sorption referred to the weight of the sample: DMSG, change in RH of 5% per hour
Description: DMSG was performed using an SPS11-100n instrument (Projekt Messtechnik) at a constant temperature of 25° C. and a change in RH of 5% per hour including isohumid conditions for 5 hours at 0% RH and for 2 hours at 50% RH.

hygroscopicity (in words) (listed as polymorph I) | hygroscopicity (in words) (listed as polymorphic form I) | moisture sorption referred to the weight of the sample (25° C.) | moisture sorption referred to the weight of the sample (25° C., listed as polymorphic form II) | hygroscopicity (in words) (listed as polymorphic form III) | weight gain under DMSG (even at a relative humidity of 95%, 25° C.) | Compound | hygroscopicity (in words) | hygroscopicity (in words) (listed as polymorphic form II)
only slightly hygroscopic | very low hygroscopicity | about 1% | – | – | – | CCN(CC)CCNC(=O)c1c(C)[nH]c(/C=C2\C(=O)Nc3ccc(F)cc32)c1C [Polymorph I, N-[2-(diethylamino)ethyl]-5-[(5-fluoro-1,2-dihydro-2-oxo-3H-indol-3-ylidene)methyl]-2,4-dimethyl-1H-pyrrole-3-carboxamide] | low hygroscopicity; also recorded: only very slightly hygroscopic | –
– | – | – | more than 6% | – | – | CCN(CC)CCNC(=O)c1c(C)[nH]c(/C=C2\C(=O)Nc3ccc(F)cc32)c1C [Polymorph II, N-[2-(diethylamino)ethyl]-5-[(5-fluoro-1,2-dihydro-2-oxo-3H-indol-3-ylidene)methyl]-2,4-dimethyl-1H-pyrrole-3-carboxamide] | clearly hygroscopic | slightly more hygroscopic; also recorded: some hygroscopicity
– | – | – | – | not hygroscopic | does not gain weight | CCN(CC)CCNC(=O)c1c(C)[nH]c(/C=C2\C(=O)Nc3ccc(F)cc32)c1C [Polymorph III, N-[2-(diethylamino)ethyl]-5-[(5-fluoro-1,2-dihydro-2-oxo-3H-indol-3-ylidene)methyl]-2,4-dimethyl-1H-pyrrole-3-carboxamide] | very low hygroscopicity; also recorded: not hygroscopic at all | –
